Test results taken from patent publication US20250026761A1, “DIAZABICYCLOOCTANE DERIVATIVES USEFUL AS MATRIX METALLOPROTEINASE INHIBITORS” (VASA THERAPEUTICS SPÓLKA Z OGRANICZONA ODPOWIEDZIALNOSCIA, priority 2021, published 2025).

Experiments:
Type in all cases: biochemical
MMP13 = molecular target: T1, MMP13 (Homo sapiens, UniProt P45452); assay: MMP-13 colorimetric inhibition assay (Enzo kit); conditions: colorimetric thiopeptide substrate, absorbance 415 nm; read-out: MMP13 IC50 class
T1 construct: purchased Enzo Life Sciences, Inc. BML-AK412
Procedure: (§1) The inhibitory activities of the compounds of the invention were assessed in 96-well microplate format using MMP1, MMP2, MMP9 and MMP13 colorimetric assay kits and TACE fluorometric assay kit from Enzo Life Sciences, Inc. The inhibitory effect of the compounds of the invention on ADAM10 activity were evaluated in 96-well microplate format using fluorometric assay from AnaSpec, Inc.
(§2) The MMP-13 Colorimetric Drug Discovery Kit (catalog #BML-AK412) is a complete assay system designed to screen inhibitors of matrix metalloproteinase-13 using a thiopeptide as a chromogenic substrate (Ac-PLG-[2-mercapto-4-methylpentanoyl]-LG-OC2H5). The MMP cleavage site peptide bond is replaced by a thioester bond in the thiopeptide. Hydrolysis of this bond by an MMP produces a sulfhydryl group, which reacts with DTNB [5,5′-dithiobis(2-nitrobenzoic acid), Ellman's reagent] to form 2-nitro-5-thiobenzoic acid, that can be detected spectrophotometrically.
(§3) The inhibitory activities of the compounds of the invention against MMP1, MMP2, MMP9 and MMP13 were tested according to the manufacturer's assay protocols and the absorbance at 415 nm was monitored using the Tecan Infinite® 200 Pro F Nano^+ microplate reader.
(§4) The normalized values were analyzed using GraphPadPrism 9 for Windows (GraphPad Software, San Diego, CA, USA) software by plotting inhibition curves and determining the IC50 values.
(§5) The calculated IC50 values were divided into the following classes: • A: <50 nM; B: 50-1000 nM; C: >1000-10,000 nM; D: >10,000 nM

MMP9 = molecular target: T2, MMP9 (Homo sapiens, UniProt P14780); assay: MMP-9 colorimetric inhibition assay (Enzo kit); conditions: colorimetric thiopeptide substrate, absorbance 415 nm; read-out: MMP9 IC50 class
T2 construct: purchased Enzo Life Sciences, Inc. BML-AK410
T2 sequence (P14780 94-707): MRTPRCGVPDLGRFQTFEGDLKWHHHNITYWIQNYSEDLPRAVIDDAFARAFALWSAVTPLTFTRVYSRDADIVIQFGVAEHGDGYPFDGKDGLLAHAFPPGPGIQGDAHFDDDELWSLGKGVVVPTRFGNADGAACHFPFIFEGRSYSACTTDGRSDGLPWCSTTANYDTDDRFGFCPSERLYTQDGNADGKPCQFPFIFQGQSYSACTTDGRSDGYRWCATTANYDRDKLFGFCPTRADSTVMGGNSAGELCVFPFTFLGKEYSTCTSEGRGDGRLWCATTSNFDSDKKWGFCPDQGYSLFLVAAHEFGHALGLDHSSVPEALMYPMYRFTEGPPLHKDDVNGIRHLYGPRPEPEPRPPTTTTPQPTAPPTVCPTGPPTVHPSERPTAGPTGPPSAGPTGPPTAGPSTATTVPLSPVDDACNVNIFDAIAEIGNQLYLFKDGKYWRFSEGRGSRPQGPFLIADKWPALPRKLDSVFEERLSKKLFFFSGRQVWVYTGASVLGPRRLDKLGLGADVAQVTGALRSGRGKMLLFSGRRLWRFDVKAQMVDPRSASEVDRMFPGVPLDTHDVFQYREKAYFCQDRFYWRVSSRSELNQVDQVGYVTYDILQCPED
Procedure: as §1
as §2, with “MMP-9” for “MMP-13”, “#BML-AK410)” for “#BML-AK412)”, “metalloproteinase-9” for “metalloproteinase-13”
as §3, §4, §5

MMP1 = molecular target: T3, MMP1 (Homo sapiens, UniProt P03956); assay: MMP-1 colorimetric inhibition assay (Enzo kit); conditions: colorimetric thiopeptide substrate, absorbance 415 nm; read-out: MMP1 IC50 class
T3 construct: purchased Enzo Life Sciences, Inc. BML-AK404
T3 sequence (P03956 100-469): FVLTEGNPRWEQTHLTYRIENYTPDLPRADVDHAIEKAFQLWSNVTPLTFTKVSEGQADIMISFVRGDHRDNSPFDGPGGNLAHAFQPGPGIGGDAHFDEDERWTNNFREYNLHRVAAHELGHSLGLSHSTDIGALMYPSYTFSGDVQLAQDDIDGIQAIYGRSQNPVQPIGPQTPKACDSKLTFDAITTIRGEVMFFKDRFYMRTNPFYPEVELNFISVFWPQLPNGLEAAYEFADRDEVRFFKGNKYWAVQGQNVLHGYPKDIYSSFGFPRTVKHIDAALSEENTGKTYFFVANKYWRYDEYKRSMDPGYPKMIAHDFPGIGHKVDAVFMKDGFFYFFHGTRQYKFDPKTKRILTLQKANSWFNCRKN
Procedure: as §1
as §2, with “MMP-1” for “MMP-13”, “#BML-AK404)” for “#BML-AK412)”, “metalloproteinase-1” for “metalloproteinase-13”
as §3, §4, §5

MMP2 = molecular target: T4, MMP2 (Homo sapiens, UniProt P08253); assay: MMP-2 colorimetric inhibition assay (Enzo kit); conditions: colorimetric thiopeptide substrate, absorbance 415 nm; read-out: MMP2 IC50 class
T4 construct: purchased Enzo Life Sciences, Inc. BML-AK408
T4 sequence (P08253 110-452 limits assumed): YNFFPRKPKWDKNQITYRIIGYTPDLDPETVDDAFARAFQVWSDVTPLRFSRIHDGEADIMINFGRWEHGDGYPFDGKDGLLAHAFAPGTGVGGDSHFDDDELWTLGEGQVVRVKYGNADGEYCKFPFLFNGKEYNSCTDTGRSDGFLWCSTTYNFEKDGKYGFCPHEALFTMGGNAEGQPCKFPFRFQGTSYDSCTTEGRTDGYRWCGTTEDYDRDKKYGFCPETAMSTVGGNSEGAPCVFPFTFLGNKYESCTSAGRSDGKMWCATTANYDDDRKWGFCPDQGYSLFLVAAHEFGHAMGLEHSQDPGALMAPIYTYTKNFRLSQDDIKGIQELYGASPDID
Procedure: as §1
as §2, with “MMP-2” for “MMP-13”, “#BML-AK408)” for “#BML-AK412)”, “screen MMP-2” for “screen”, “inhibitors” for “inhibitors of matrix metalloproteinase-13”
as §3, §4, §5

TACE (ADAM17) = molecular target: T5, TACE (ADAM17) (Homo sapiens, UniProt P78536); assay: TACE fluorometric inhibition assay (Enzo kit); conditions: quenched fluorogenic peptide, ex/em 320 nm/420 nm; read-out: TACE IC50 class
T5 construct: purchased Enzo Life Sciences, Inc. BML-AK310
T5 sequence (P78536 223-474 limits assumed): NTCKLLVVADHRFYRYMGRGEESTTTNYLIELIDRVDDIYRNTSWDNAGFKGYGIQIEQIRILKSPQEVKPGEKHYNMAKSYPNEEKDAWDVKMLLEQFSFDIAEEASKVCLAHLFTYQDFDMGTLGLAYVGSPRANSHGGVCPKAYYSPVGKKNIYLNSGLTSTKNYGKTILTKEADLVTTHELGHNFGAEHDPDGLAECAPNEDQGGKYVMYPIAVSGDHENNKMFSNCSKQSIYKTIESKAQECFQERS
Procedure: as §1
The TACE Fluorometric Drug Discovery Kit (catalog #BML-AK310) is a complete assay system designed to screen ADAM17 (TACE) inhibitors using a quenched fluorogenic peptide: Mca-PLAQAV-Dpa-RSSSR-NH2. Mca fluorescence is quenched by the Dpa group until cleavage by proteases separates the two moieties leading to an increase in Mca fluorescence.
The inhibitory activity of the compounds of the invention against TACE was tested according to the manufacturer's assay protocol and the fluorescence was monitored at excitation/emission wavelengths=320 nm/420 nm using Tecan Infinite® 200 Pro F Nano^+ microplate reader.
as §4, §5

Structure (SMILES)	IC50 (MMP13)	IC50 (MMP9)	IC50 (MMP1)	IC50 (MMP2)	IC50 (TACE (ADAM17))
COCCOC(=O)N1CC2CCC(C(=O)NO)(C1)N2S(=O)(=O)c1ccc(Oc2ccc(F)cc2)nc1 (stereo not drawn) [Example 13, 2-methoxyethyl 8-((6-(4-fluorophenoxy)pyridin-3-yl)sulfonyl)-1-(hydroxycarbamoyl)-3,8-diazabicyclo[3.2.1]octane-3-carboxylate]	0.05 to 1 µM	< 0.05 µM	1 to 10 µM	0.05 to 1 µM	1 to 10 µM
COCCOC(=O)N1CC2CCC(C(=O)NO)(C1)N2S(=O)(=O)N1CCC(Oc2ccc(F)cn2)CC1 (stereo not drawn) [Example 20, 2-methoxyethyl 8-((4-((5-fluoropyridin-2-yl)oxy)piperidin-1-yl)sulfonyl)-1-(hydroxycarbamoyl)-3,8-diazabicyclo[3.2.1]octane-3-carboxylate]	0.05 to 1 µM	0.05 to 1 µM	> 10 µM	0.05 to 1 µM	> 10 µM
COCCOC(=O)N1CC2CCC(C(=O)NO)(C1)N2S(=O)(=O)N1CCC(Oc2ccncc2)CC1 (stereo not drawn) [Example 21, 2-methoxyethyl 1-(hydroxycarbamoyl)-8-((4-(pyridin-4-yloxy)piperidin-1-yl)sulfonyl)-3,8-diazabicyclo[3.2.1]octane-3-carboxylate]	0.05 to 1 µM	0.05 to 1 µM	> 10 µM	< 0.05 µM	> 10 µM
COCCOC(=O)N1CC2CCC(C(=O)NO)(C1)N2S(=O)(=O)N1CCN(Cc2ccc(F)cc2)CC1 (stereo not drawn) [Example 22, 2-methoxyethyl 8-((4-(4-fluorobenzyl)piperazin-1-yl)sulfonyl)-1-(hydroxycarbamoyl)-3,8-diazabicyclo[3.2.1]octane-3-carboxylate]	1 to 10 µM	1 to 10 µM	> 10 µM	1 to 10 µM	> 10 µM

Other lines, results leading:

IC50 (MMP13)	IC50 (MMP9)	IC50 (MMP1)	IC50 (MMP2)	IC50 (TACE (ADAM17))	Structure (SMILES)
< 0.05 µM	< 0.05 µM	> 10 µM	< 0.05 µM	> 10 µM	COCCOC(=O)N1CC2CCC(C(=O)NO)(C1)N2S(=O)(=O)c1ccc(Oc2ccc(F)cc2)c(F)c1 (stereo not drawn) [Example 5, 2-methoxyethyl 8-((3-fluoro-4-(4-fluorophenoxy)phenyl)sulfonyl)-1-(hydroxycarbamoyl)-3,8-diazabicyclo[3.2.1]octane-3-carboxylate]
< 0.05 µM	< 0.05 µM	1 to 10 µM	< 0.05 µM	1 to 10 µM	COCCOC(=O)N1CC2CCC(C(=O)NO)(C1)N2S(=O)(=O)N1CCC(Oc2ccc(Cl)cc2)CC1 (stereo not drawn) [Example 19, 2-methoxyethyl 8-((4-(4-chlorophenoxy)piperidin-1-yl)sulfonyl)-1-(hydroxycarbamoyl)-3,8-diazabicyclo[3.2.1]octane-3-carboxylate]
